Columns and labels:
[1] = tested on: Zymosan-induzierte Pfotenentzündung bei der Ratte; experiment: Model 1a: zymosan-induced paw inflammation, paw withdrawal latency on thermal stimulation (Hargreaves Test); type: in vivo
[2] = tested on: Zymosan-induzierte Pfotenentzündung bei der Maus; experiment: Model 3: zymosan-induced paw inflammation, paw withdrawal latency on thermal stimulation (Hargreaves Test), AUC; type: in vivo; conditions: for Statistischer Unterschied gegenüber Vehikel: thermische Hyperalgesie AUC; for AUC Mittelwert [Maß für Hyperalgesie]: thermische Hyperalgesie
Description: Parameter: Pfotenwegziehzeit bei thermischer Stimulation der Hinterpfote. Versuchsdurchführung: In Kurzzeitnarkose mit Isofluran wurde dem Versuchstier 25 μl einer Suspension, die 50 mg/ml Zymosan enthielt, in die rechte Hinterpfote injiziert. Dann wurde die […] quantitativ wie folgt bestimmt: Bestimmung der Pfotenwegziehzeit bei thermischer Stimulation (Hargreaves Test; s.o.). Das Versuchstier wurde in […] Versuchstier nach der Erkundungsphase (etwa 5 min) nicht mehr bewegte, wurde […] zu stimulierenden Hinterpfote positioniert und […]. Die […] ab, so dass die Hauttemperatur […] linear […] Pfote […] ab. Die Pfotentemperatur zum Zeitpunkt des Wegziehens ist für das Tier gerade eben unangenehm, […] von thermischer Schmerzschwelle. Kurz vor Zymosan-Injektion und für 7 bis 14 Tage nach Injektion wurde […] an der rechten und linken Hinterpfote bestimmt. Anschließend wurde […] Integral der Fläche, die aus […] und […] Pfote gebildet wurde, bestimmt (AUC, area between the curves, s. Tabellen 5 und 6). Je größer dieser Wert ist, umso […], und je kleiner der Wert bei Tieren, die die Substanz erhalten, desto stärker ist der Therapieerfolg. In einer 7-Tage Studie induzierte die Zymosan Injektion in […], Tab. 5). In den anderen Gruppen wurde die Substanzgabe einen Tag nach Zymosan Injektion, […] schon […]. […] Die […] Studie (7 Tage) ergab, dass die AUC unter Substanzgabe dosisabhängig abnahm. […] In einer parallel […] von Tieren wurde Paracetamol in einer sehr hohen Dosis ebenfalls zweimal am Tag verabreicht. […] Paracetamol (Tab. 5). […] […] Zymosan Injektion und Dosierschema […] zuvor beschriebenen Studie. Einziger Unterschied war, dass die weitere Studie über 14 Tage lief.

[3] = tested on: Zymosan-induzierte Pfotenentzündung bei der Maus; experiment: Model 4: zymosan-induced paw inflammation, spontaneous running wheel performance, AUC; type: in vivo, C57/B6 Mäuse; conditions: for AUC Mittelwert (Laufradaktivität): 7 days after Zymosan; for Statistischer Unterschied gegenüber Vehikel: Laufradaktivität AUC
Text: Das Versuchstier hat in seinem Haltungskäfig Zugang zu einem Laufrad, dessen Umdrehungen elektronisch registriert werden. Die C57/B6 Mäuse benutzen in den Nachtstunden freiwillig das Laufrad und legen im Mittel nach einer einwöchigen Gewöhnungsphase 4100 Meter/Nacht zurück. Nach Zymosan Injektion ist die nächtliche Laufstrecke verkürzt. Diese Abnahme der Laufleistung gilt als Parameter für entzündungsschmerzbedingte Funktionseinschränkung. Versuchsdurchführung: Die Laufstrecke/24 Std. wurde nach einer Eingewöhnungsphase eine Woche lang zur Bestimmung der Baseline gemessen. Dann wurde in Kurzzeitnarkose mit Isofluran dem Versuchstier 25 µl einer Suspension, die […] Zymosan enthielt, in die rechte Hinterpfote injiziert. Anschließend wurde Laufstrecke/24 Std. während der nächsten sieben Tage ermittelt. In der Auswertung wurde die Fläche unter der Kurve der Laufstreckenwerte bestimmt (AUC, Tab. 7): je kleiner die AUC, desto geringer die Laufleistung in der Woche nach Zymosan Injektion. […] Die Substanzgabe wurde am Tag 1 nach Zymosan Injektion begonnen.

[4] = tested on: Zymosan-induzierte Pfotenentzündung bei der Ratte; experiment: Model 1b: zymosan-induced paw inflammation, paw withdrawal threshold on mechanical stimulation (von Frey Test); type: in vivo
[5] = tested on: Kaolin/Carrageenan induzierte Kniegelenksentzündung bei der Ratte; experiment: Model 2: kaolin/carrageenan-induced knee joint inflammation, responses of spinal neurons to pressure on the knee; type: in vivo
Text: Modell: Zymosan-induzierte Pfotenentzündung bei der Ratte; Parameter: Pfotenwegziehzeit oder Pfotenwegziehschwelle bei thermischer oder mechanischer Stimulation der Hinterpfote. • 2. Modell: Kaolin/Carrageenan induzierte Kniegelenksentzündung bei der Ratte; Parameter: Reaktion spinaler Neurone bei Druckreizung des Knies.
Versuchsdurchführung: Bei Ratten wurde in Trapanal-Narkose der Wirbelkanal eröffnet und Rückenmarksneurone, die "Schmerzimpulse" aus dem Kniegelenk verarbeiteten, identifiziert. Nach Identifizierung wurde eine Langzeitableitung durchgeführt, in der die Aktivität der Nervenzelle vor und während der Entwicklung einer akuten Entzündung im Kniegelenk registriert wurde. Dazu wurden in einer Kontrollperiode vor Induktion der Entzündung und nach Induktion der Entzündung für mehrere Stunden die Antworten auf nicht noxische und noxische Reizung am Kniegelenk gemessen.
Die akute Entzündung wurde durch die intraartikuläre Injektion einer Kaolin und Carrageenan Suspension (etwa 150 µl) induziert. In Kontrollexperimenten wurde nur das Vehikel auf die Rückenmarksoberfläche aufgebracht, um die Entwicklung der Übererregbarkeit unter Kontrollbedingungen darzustellen. In der Regel fand diese Entwicklung der Übererregbarkeit innerhalb von 2 bis 4 Stunden statt, und sie äußerte sich in einer starken Zunahme der Antworten auf nicht noxische und noxische Reizung des Kniegelenks (Tab. 3). […] Dann wurden die Antworten der Zelle auf nichtnoxische und noxische Reizung wie in den Kontrollexperimenten weiter verfolgt.

[6] = je 30 mg/kg i.p. (x3), 0,5 h nach Zymosan-Injektion
[7] = je 30 mg/kg i.p. (x3), 1 h nach Zymosan-Injektion
[8] = je 30 mg/kg i.p. (x3), 2 h nach Zymosan-Injektion
[9] = je 30 mg/kg i.p. (x3), 3 h nach Zymosan-Injektion
[10] = je 30 mg/kg i.p. (x3), 4 h nach Zymosan-Injektion
[11] = je 30 mg/kg i.p. (x3), 5 h nach Zymosan-Injektion
[12] = je 30 mg/kg i.p. (x3), 6 h nach Zymosan-Injektion
[13] = je 30 mg/kg i.p. (x3), 7 h nach Zymosan-Injektion
[14] = je 30 mg/kg i.p. (x3), 24 h nach Zymosan-Injektion
[15] = je 30 mg/kg i.p. (x3), Baseline -0,5 h
[16] = 7 days, 2.8 mg/kg oral twice daily
[17] = 7 days, 25 mg/kg oral twice daily
[18] = 7 days, 75 mg/kg oral twice daily
[19] = etwa 30 µl of 10 µM Lösung on the spinal cord, 30-60 min nach K/C-Injektion
[20] = etwa 30 µl of 10 µM Lösung on the spinal cord, 60-120 min nach K/C-Injektion
[21] = etwa 30 µl of 10 µM Lösung on the spinal cord, 120-180 min nach K/C-Injektion
[22] = etwa 30 µl of 10 µM Lösung on the spinal cord, 180-240 min nach K/C-Injektion
[23] = etwa 30 µl of 10 µM Lösung on the spinal cord, Baseline

CNc1nccc(-c2cc3cc(C(=O)N[C@@H](CN(c4ccccc4)c4ccccc4)c4n[nH]c(=O)o4)ccc3[nH]2)n1 [Verbindung 13, 2-(2-Methylamin-pyrimidin-4-yl)-1H-indol-5-carbonsäure [(S)-2-diphenylamin-1-(5-oxo-4,5-dihydro-[1,3,4]oxadiazol-2-yl)-ethyl]-amid]
thermische Hyperalgesie, comparison with Diclofenac ([1]; comparison data from an earlier study): erheblich stärker reduziert als das NSAID Diclofenac | thermische Hyperalgesie, duration of effect nach der letzten Substanzgabe ([1]; je 30 mg/kg i.p. (x3)): > 18 Std. | Veränderung der Pfotenwegziehzeit (%) Mittelwert [1, 6]: -16,6% | Veränderung der Pfotenwegziehzeit (%) Mittelwert [1, 7]: -31,3% | Veränderung der Pfotenwegziehzeit (%) Mittelwert [1, 8]: -30,2% | Veränderung der Pfotenwegziehzeit (%) Mittelwert [1, 9]: -15,3% | Veränderung der Pfotenwegziehzeit (%) Mittelwert [1, 10]: -16,0% | Veränderung der Pfotenwegziehzeit (%) Mittelwert [1, 11]: -9,7% | Veränderung der Pfotenwegziehzeit (%) Mittelwert [1, 12]: 5,0% | Veränderung der Pfotenwegziehzeit (%) Mittelwert [1, 13]: 3,4% | Veränderung der Pfotenwegziehzeit (%) Mittelwert [1, 14]: -3,8% | Veränderung der Pfotenwegziehzeit (%) Mittelwert [1, 15]: 0,0% | thermische Hyperalgesie, Seitenunterschied in der Pfotenwegziehzeit ([1]; je 30 mg/kg i.p., after the third dose): überhaupt kein Seitenunterschied in der Pfotenwegziehzeit mehr zu finden | thermische Hyperalgesie compared with Kontrollgruppe ([1]; je 30 mg/kg i.p., from two hours after Zymosan Injektion): geringer ausgeprägt als in der Kontrollgruppe | thermische Hyperalgesie, comparison with Paracetamol ([2]; 7-day study, twice daily): stärker als Paracetamol | Effekte on thermische Hyperalgesie in der hohen Dosierung ([2]; 14-day study, high dose (25 mg/kg)): gleich stark | minimal effective dose ([2]; 168 h, 7-day study, oral twice daily, read-out: Einzeldosis from which Therapieerfolg signifikant gegenüber der Vehikelgruppe): ≥ 8.3 mg/kg | Statistischer Unterschied gegenüber Vehikel [2, 16]: nein | Statistischer Unterschied gegenüber Vehikel [2, 17]: ja | Statistischer Unterschied gegenüber Vehikel [2, 18]: ja | Statistischer Unterschied gegenüber Vehikel ([2]; 14 days, 25 mg/kg twice daily): ja | AUC Mittelwert [Maß für Hyperalgesie] ([2]; 7 days after Zymosan, 2.8 mg/kg oral twice daily): 40.4 | AUC Mittelwert [Maß für Hyperalgesie] ([2]; 7 days after Zymosan, 25 mg/kg oral twice daily): 19.4 | AUC Mittelwert [Maß für Hyperalgesie] ([2]; 7 days after Zymosan, 75 mg/kg oral twice daily): 17.4 | AUC Mittelwert [Maß für Hyperalgesie] ([2]; 14 days after Zymosan, 25 mg/kg twice daily): 47.6 | AUC Mittelwert (Laufradaktivität) ([3]; 2.8 mg/kg oral twice daily): 131.1 | AUC Mittelwert (Laufradaktivität) ([3]; 25 mg/kg oral twice daily): 216.7 | AUC Mittelwert (Laufradaktivität) ([3]; 75 mg/kg oral twice daily): 251.7 | Laufleistung nach Zymosan Injektion gegenüber der Vehikelgruppe ([3]; 7 days, twice daily): dosisabhängige Steigerung der Laufstrecke | Statistischer Unterschied gegenüber Vehikel [3, 16]: nein | Statistischer Unterschied gegenüber Vehikel [3, 17]: ja | Statistischer Unterschied gegenüber Vehikel [3, 18]: ja | mechanische Hyperalgesie ([4]; je 30 mg/kg i.p. (x3)): signifikant reduziert | mechanische Hyperalgesie, duration of effect nach der letzten Substanzgabe ([4]; je 30 mg/kg i.p. (x3)): ≥ 18 Std. | mechanische Hyperalgesie, onset of effect nach Zymosan Injektion ([4]; je 30 mg/kg i.p. (x3)): 1 Stunde | Veränderung der Pfotenwegziehschwelle (%) Mittelwert [4, 6]: -37,4% | Veränderung der Pfotenwegziehschwelle (%) Mittelwert [4, 7]: -43,1% | Veränderung der Pfotenwegziehschwelle (%) Mittelwert [4, 8]: -36,0% | Veränderung der Pfotenwegziehschwelle (%) Mittelwert [4, 9]: -35,1% | Veränderung der Pfotenwegziehschwelle (%) Mittelwert [4, 10]: -46,7% | Veränderung der Pfotenwegziehschwelle (%) Mittelwert [4, 11]: -40,6% | Veränderung der Pfotenwegziehschwelle (%) Mittelwert [4, 12]: -33,1% | Veränderung der Pfotenwegziehschwelle (%) Mittelwert [4, 13]: -44,7% | Veränderung der Pfotenwegziehschwelle (%) Mittelwert [4, 14]: -9,7% | Veränderung der Pfotenwegziehschwelle (%) Mittelwert [4, 15]: 0,0% | Wirkung auf die Antworten auf noxische Kniegelenksstimulation, comparison with Indomethacin ([5]; comparison with published data of an earlier study): insgesamt stärker ausgeprägt als die Wirkung von Indomethacin | Entwicklung der spinalen Übererregbarkeit gegenüber den Kontrollen ([5]; etwa 30 µl of 10 µM Lösung on the spinal cord): beinahe vollständig unterdrückt | Neuronale Antworten vor und während Kniegelenksentzündung, Nicht-noxische Reizung am Kniegelenk, Mittelwert [5, 19]: 8,66 imp/15s | Neuronale Antworten vor und während Kniegelenksentzündung, Noxische Reizung am Kniegelenk, Mittelwert [5, 19]: 62,3 imp/15s | Neuronale Antworten vor und während Kniegelenksentzündung, Nicht-noxische Reizung am Kniegelenk, Mittelwert [5, 20]: 2,71 imp/15s | Neuronale Antworten vor und während Kniegelenksentzündung, Noxische Reizung am Kniegelenk, Mittelwert [5, 20]: 26,9 imp/15s | Neuronale Antworten vor und während Kniegelenksentzündung, Nicht-noxische Reizung am Kniegelenk, Mittelwert [5, 21]: 11,16 imp/15s | Neuronale Antworten vor und während Kniegelenksentzündung, Noxische Reizung am Kniegelenk, Mittelwert [5, 21]: 8,5 imp/15s | Neuronale Antworten vor und während Kniegelenksentzündung, Nicht-noxische Reizung am Kniegelenk, Mittelwert [5, 22]: 39,78 imp/15s | Neuronale Antworten vor und während Kniegelenksentzündung, Noxische Reizung am Kniegelenk, Mittelwert [5, 22]: 19,5 imp/15s | Neuronale Antworten vor und während Kniegelenksentzündung, Nicht-noxische Reizung am Kniegelenk, Mittelwert [5, 23]: 0,92 imp/15s | Neuronale Antworten vor und während Kniegelenksentzündung, Noxische Reizung am Kniegelenk, Mittelwert [5, 23]: 0,8 imp/15s

Source: EP1531819B1, “USE OF I kappa B KINASE INHIBITORS FOR THE TREATMENT OF PAIN” (Sanofi-Aventis Deutschland GmbH, priority 2002, dated 2004)
